Earlier results in patent US9447122B2, “Arginase inhibitors and methods of use thereof” (AstraZeneca AB, priority 2010, dated 2016).

Columns and labels:
humans = conditions: subcutaneous administration; cited from earlier work
arginase = molecular target: T1, arginase (Homo sapiens, UniProt P78540); conditions: literature; cited from earlier work
T1 sequence (P78540 23-354): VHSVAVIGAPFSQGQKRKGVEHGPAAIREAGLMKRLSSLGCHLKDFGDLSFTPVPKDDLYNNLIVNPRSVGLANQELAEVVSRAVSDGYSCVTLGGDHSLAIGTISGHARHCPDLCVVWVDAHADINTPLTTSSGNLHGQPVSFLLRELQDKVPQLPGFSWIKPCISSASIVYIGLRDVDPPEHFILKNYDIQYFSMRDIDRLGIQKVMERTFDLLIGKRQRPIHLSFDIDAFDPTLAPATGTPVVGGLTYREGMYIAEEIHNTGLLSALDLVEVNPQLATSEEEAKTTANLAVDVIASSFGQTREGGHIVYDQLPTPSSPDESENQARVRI

N[C@@H](CSCCB(O)O)C(=O)O [BEC, S-(2-boronoethyl)-L-cysteine]
vasodilation and circulation (humans): vasodilatory and enhances circulation | inhibitory potency at pH 7.5 vs pH 9.5 (arginase): much lower at pH 7.5 than at pH 9.5
